The results in this text go back to PubChem BioAssay (NCI).

The structures appear in SMILES notation.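 Dose response: 5 concentrations. Exposure: 48 h. Format: 96-well plates. Endpoint: linear interpolation; highest concentration if not reached. At the TGI there is no net growth.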

Holding throughout (assay): NCI tumour cell line growth inhibition, 48 h
Assay [1] deals with A549 NSCLC.
The subject of assay [2] is BT-549 breast.
Assay [3] deals with HCT-116 colon.
Assay [4] has as its system HOP-62 NSCLC.
Assay [5] deals with HOP-92 NSCLC.
Assay [6] has as its system IGROV1 ovarian.
Assay [7] concerns MDA-MB-231 breast.
For assay [8], the system named is NCI-H226 lung.
The subject of assay [9] is NCI-H460 lung.
Assay [10] concerns RPMI-8226 leukemia.
The test system of assay [11] is SK-MEL-28 melanoma.
The test system of assay [12] is SR leukemia.

On to `O=C(/C=C1\C[C@H]2C=Nc3ccccc3C(=O)N2C1)NCCCCNC(=O)/C=C1\C[C@H]2C=Nc3ccccc3C(=O)N2C1`, for which the TGI in [1] was 49.1 µM; in assay [2], 26.1 µM; in assay [3], 25.9 µM; in [4], 38.5 µM; in assay [5], 20.4 µM; in [6], 27.8 µM. Besides, the TGI worked out at 0.986 µM in assay [7]; 59.5 µM in assay [8]; 37.5 µM in assay [9]; 18.6 µM in assay [10]; 33.3 µM in assay [11].
On to `Cc1ccc2c(c1)C(=O)N1CCC[C@H]1C=N2`, for which the TGI in assay [1] is above 100 µM; in assay [2], 84.7 µM; in assay [3], above 100 µM; in assay [4], above 83.1 µM; in assay [5], above 86.9 µM; in assay [6], above 66.3 µM. The TGI was above 66.5 µM in [7]; above 71.6 µM in assay [9]; above 53.3 µM in assay [10]; 52 µM in assay [11]; above 92.1 µM in assay [12].
For `Cc1ccc2c(sc(-c3ccc4c(c3)sc(-c3ccc5c(c3)sc(-c3ccc(N(C)C)cc3)[n+]5C)[n+]4C)[n+]2C)c1S(=O)(=O)O` (tested in a mixture with another compound), the TGI in [1], in [2], in assay [3], in [5], in [6] and in assay [7] was above 100 µM each time. The TGI in [10] and in [11] was above 100 µM each time.
With `O=C(Nc1cc2c(=O)oc3ccccc3c2oc1=O)c1cccnc1`, the TGI in assay [1], in [2], in assay [3], in assay [5], in assay [6] and in [7] was above 100 µM throughout. Moreover, the TGI in assay [8], in [9], in [11] and in assay [12] was above 100 µM throughout.
Take `N#CC(C#N)=C(N)/C(C#N)=C/c1ccc2ccccc2n1`: the TGI in assay [1] was above 100 µM; in assay [2], 91.1 µM; in assay [3], 28.4 µM; in assay [4], 33 µM; in assay [5], above 100 µM; in [6], 38.2 µM. Moreover, the TGI is 72.5 µM in assay [7]; above 100 µM in [8]; above 100 µM in assay [9]; above 100 µM in assay [10]; 43.2 µM in assay [11].
With `C/C(=N\Nc1nc2ccccc2n1C)c1cnccn1`, the TGI was above 100 µM in assay [1]; above 100 µM in assay [2]; 37 µM in assay [4]; 6.83 µM in assay [5]; 71.9 µM in [7]; above 100 µM in assay [8]. In addition, the TGI in assay [9] and in assay [12] was above 100 µM throughout.
Regarding `COc1ccc(/C=C2\CCC(C)/C(=C\c3ccc(OC)c(OC)c3)C2=O)cc1OC` (centres undefined), the TGI turned out to be 20.3 µM in [2]; 14.3 µM in assay [3]; 14.6 µM in assay [6]; 60.8 µM in [7]; 38.8 µM in assay [8]; 8.01 µM in [10]. The same compound gave a TGI in assay [11] of 48.1 µM.
`C/C=C\C(CC(=O)NCCC1CN(S(=O)(=O)C(F)(F)F)c2ccccc21)CC(=O)OC` (centres undefined): the TGI was above 100 µM in [1]; 67.1 µM in assay [2]; above 100 µM in assay [3]; above 100 µM in [4]; above 100 µM in assay [5]; above 100 µM in assay [6]. Besides, the TGI in assay [7], in assay [9], in [10], in assay [11] and in assay [12] was above 100 µM in each case.
With `CC1(C)CC(=O)C2=C(C1)NC1=C(C(=O)CC(C)(C)C1)C2c1ccc([N+](=O)[O-])cc1`, the TGI in [1], in assay [2], in assay [3], in assay [4], in [5] and in [6] was above 100 µM throughout. The TGI in assay [7], in assay [8], in assay [9], in assay [10] and in assay [11] was above 100 µM in each case.
Take `CCN(CC)CCN1C(=O)c2c(c(-c3ccccc3)c3ccccc3c2-c2ccccc2)C1=O`: the TGI was above 100 µM in assay [1]; above 100 µM in [2]; above 100 µM in assay [3]; above 100 µM in assay [4]; 86.9 µM in assay [5]; above 100 µM in assay [6]. The TGI in [7], in assay [8], in assay [9] and in assay [10] was above 100 µM each time.
In the case of `Cc1cccc(CC(Cc2c(C)cccc2C(=O)O)C(=O)O)c1` (centres undefined), the TGI in assay [1], in assay [2], in assay [3], in [4], in assay [6] and in assay [7] was above 100 µM throughout. Further, the TGI in [8], in [9], in assay [10], in [11] and in assay [12] was above 100 µM each time.
Regarding `NC(=O)NC(=O)c1cccc(CNc2ccc(C(=O)N[C@@H](CCC(=O)O)C(=O)O)cc2)n1`, the TGI in [1], in [2], in assay [3], in assay [5], in assay [6] and in assay [7] was above 100 µM throughout. Also, the TGI in [8], in [9], in [10], in [11] and in assay [12] was above 100 µM throughout.
In the case of `CCOC(=O)c1nc2ccccc2nc1Nc1ccc(OC)c(OC)c1`, the TGI in [1], in [2], in assay [3], in assay [4], in [5] and in assay [6] was above 100 µM in each case. The TGI in [7], in assay [9], in [10], in assay [11] and in assay [12] was above 100 µM throughout.
For `Brc1c(C#CCC(c2ccccc2)(c2ccccc2)c2ccccc2)ccc(C#CCC(c2ccccc2)(c2ccccc2)c2ccccc2)c1Br`, the TGI in assay [1], in assay [2], in assay [3], in assay [5], in [6] and in assay [7] was above 100 µM throughout. For the same compound, the TGI in assay [8], in assay [9], in assay [10], in assay [11] and in assay [12] was above 100 µM each time.
As to `Cc1c2c(n(CCc3ccccc3)c1C)N(C)N=C(C#N)S2(=O)=O`, the TGI in [1], in assay [2], in assay [3], in [4], in assay [6] and in assay [7] was above 100 µM in each case. Besides, the TGI in [8], in assay [9], in [10], in assay [11] and in assay [12] was above 100 µM throughout.
`O=C1N2CCc3c([nH]c4ccccc34)C23CC2CCCCC12S3` (centres undefined): the TGI in assay [1], in assay [2], in assay [3], in [4], in assay [5] and in assay [6] was above 100 µM in each case. Besides, the TGI in assay [7], in assay [8], in assay [10], in assay [11] and in assay [12] was above 100 µM throughout.
`O=C(C[n+]1ccccc1)N/N=C(\Cc1nc2ccc([N+](=O)[O-])cc2[nH]c1=O)C(=O)Nc1cc(Cl)c(Cl)cc1Cl`: the TGI in assay [1], in assay [2], in [3], in assay [5], in assay [6] and in [7] was above 100 µM in each case. For the same compound, the TGI in assay [8], in [9], in assay [10], in assay [11] and in [12] was above 100 µM throughout.
For `O=C(CCCNc1nc(-c2ccccc2)cs1)c1cccs1`, the TGI in assay [1], in assay [2], in assay [3], in assay [4], in assay [6] and in [7] was above 100 µM in each case. Also, the TGI in assay [8], in assay [9], in assay [10], in [11] and in [12] was above 100 µM in each case.
As for `CC1=CCC2C3(C)CCC2(C(C)C)C1C3` (centres undefined) (tested in a mixture with another compound), the TGI in assay [1] is 39 µM; in [2], 45.8 µM; in assay [3], above 100 µM; in assay [4] it was 57.5 µM; in assay [5], 58.3 µM; in assay [6], 35.1 µM. Also, the TGI in assay [7] stood at 55.6 µM; in assay [9] it was 32.9 µM; in assay [10], 56.7 µM; in [11] it was 88.6 µM.
Take `CCOC(=O)c1sc(N/N=C2\NC(=O)/C(=C/c3ccc([N+](=O)[O-])cc3)S2)nc1C`: the TGI in assay [1] was above 100 µM; in assay [2], 74.5 µM; in assay [3], 36.7 µM; in assay [4], 38 µM; in assay [5], 44.6 µM; in assay [6], 35.4 µM. In addition, the TGI was 49.2 µM in assay [7]; 55.1 µM in [8]; 48.2 µM in assay [9]; above 100 µM in [11]; 29.4 µM in assay [12].
Consider `C/C1=C/C(C)CC(C)OC(=O)C(C)NC(=O)C(Cc2ccc(O)c(I)c2)N(C)C(=O)C(C)NC(=O)C(C)C1` (centres undefined), for which the TGI in assay [1] was above 100 µM; in assay [2], 0.737 µM; in assay [3] it was above 48.7 µM; in assay [4], below 0.01 µM; in assay [5] it was 0.0259 µM; in [6], below 0.01 µM. The TGI in assay [7] was 0.963 µM; in assay [9], 12.8 µM; in assay [10], 10.1 µM; in assay [12] it was 5.8 µM.
In the case of `O=C(N/N=C/c1ccc([N+](=O)[O-])o1)c1ccc(C(=O)N/N=C/c2ccc([N+](=O)[O-])o2)cc1`, the TGI in assay [1], in [2], in assay [3], in assay [4], in [5] and in [6] was above 100 µM each time. For the same compound, the TGI in assay [7] is above 100 µM; in [8], above 100 µM; in assay [10], 26.1 µM; in assay [11] it was 75.7 µM; in [12], above 100 µM.
As for `COP(=O)(Cc1ccccc1)Cc1ccccc1`, the TGI in assay [1], in [2], in [3], in assay [4], in assay [6] and in assay [7] was above 100 µM in each case. Further, the TGI in assay [8], in [9], in assay [10], in assay [11] and in assay [12] was above 100 µM in each case.
Consider `CCCCc1ccc(Nc2nc(=S)c3[nH]cnc3[nH]2)cc1`, for which the TGI in [1] was above 100 µM; in assay [2], 39 µM; in [3], above 100 µM; in assay [5], above 100 µM; in [6] it was 40.4 µM; in [7] it was 83.3 µM. Besides, the TGI was 31.6 µM in assay [8], above 100 µM in [9], 90.4 µM in assay [10] and above 100 µM in [11].
Regarding `Cc1ccc(N=N/C(=N/NC(=O)c2cc(Cl)ccc2C(=O)c2ccccc2)c2ccc(N(CCC#N)CCC#N)cc2C)cc1`, the TGI in assay [1] was 58.7 µM; in assay [2], above 100 µM; in assay [3], 31.5 µM; in assay [4], above 100 µM; in [6], 41.3 µM; in assay [7], 24.8 µM. Besides, the TGI was 38 µM in assay [8], 13.6 µM in assay [9], 96.9 µM in assay [10] and above 100 µM in assay [11].
